The source of these data is US12479847B2 (DANA-FARBER CANCER INSTITUTE, INC., priority 2019, dated 2025).

Like-named read-outs stand apart in the source and are kept apart here.

Common to all, as to assay: KINOMEscan (ScanMAX) kinase profiling
Common to all, as to format: binding

Test [1] has as its target T1, panel of 468 kinases (Homo sapiens, UniProt P36507).
T1 construct: purchased KINOMEscan (ScanMAX) service
The settings on record: MEK2; 1 μM; read-out: % control.

In test [2] the target is T2, panel of 468 kinases (Homo sapiens, UniProt P42336).
T2 construct: purchased KINOMEscan (ScanMAX) service
The settings on record: PIK3CA; 1 μM; read-out: % control.

The target of test [3] is T3, panel of 468 kinases (Homo sapiens, UniProt P37023).
T3 construct: purchased KINOMEscan (ScanMAX) service
The note with it: ACVRL1; 1 μM; read-out: % control.

Test [4] has as its target T4, panel of 468 kinases (Homo sapiens, UniProt P00519, F317L).
T4 construct: purchased KINOMEscan (ScanMAX) service
The settings on record: 1 μM, read-out: % control.

For test [5], the target named is T5, panel of 468 kinases (Homo sapiens, UniProt P51955).
T5 construct: purchased KINOMEscan (ScanMAX) service
T5 sequence (P51955 1-445): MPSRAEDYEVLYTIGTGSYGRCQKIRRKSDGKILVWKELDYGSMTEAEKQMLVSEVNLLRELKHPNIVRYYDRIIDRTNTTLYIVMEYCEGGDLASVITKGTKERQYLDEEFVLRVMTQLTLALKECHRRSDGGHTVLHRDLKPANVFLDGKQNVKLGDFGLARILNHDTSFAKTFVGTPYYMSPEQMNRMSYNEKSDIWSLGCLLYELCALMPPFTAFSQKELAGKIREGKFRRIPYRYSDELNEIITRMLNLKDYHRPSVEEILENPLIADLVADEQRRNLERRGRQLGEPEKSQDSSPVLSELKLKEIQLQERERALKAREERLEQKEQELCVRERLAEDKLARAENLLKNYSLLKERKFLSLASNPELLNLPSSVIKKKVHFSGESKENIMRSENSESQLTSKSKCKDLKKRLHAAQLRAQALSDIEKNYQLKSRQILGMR
The settings on record: NEK2; 1 μM; read-out: % control.

Test [6] concerns the target T6, panel of 468 kinases (Homo sapiens, UniProt P06213).
T6 construct: purchased KINOMEscan (ScanMAX) service
The settings on record: INSR; 1 μM; read-out: % control.

Test [7] concerns the target T7, panel of 468 kinases (Homo sapiens, UniProt P0C1S8).
T7 construct: purchased KINOMEscan (ScanMAX) service
The note with it: WEE2; 1 μM; read-out: % control.

The test system of test [8] is panel of 468 kinases. The note with it: 1 μM.
Test [9] addresses T8, panel of 468 kinases (Homo sapiens, UniProt Q15375).
T8 construct: purchased KINOMEscan (ScanMAX) service
The note with it: EPHA7; 1 μM; read-out: % control.

For test [10], the target named is T9, panel of 468 kinases (Homo sapiens, UniProt Q9NYL2).
T9 construct: purchased KINOMEscan (ScanMAX) service
The note with it: ZAK; 1 μM; read-out: % control.

Test [11] concerns the target T10, panel of 468 kinases (Homo sapiens, UniProt P07947).
T10 construct: purchased KINOMEscan (ScanMAX) service
The settings on record: YES; 1 μM; read-out: % control.

The target in test [12] is T11, panel of 468 kinases (Homo sapiens, UniProt Q8NEB9).
T11 construct: purchased KINOMEscan (ScanMAX) service
The note with it: VPS34; 1 μM; read-out: % control.

Test [13] addresses T12, panel of 468 kinases (Homo sapiens, UniProt P42336, E545A).
T12 construct: purchased KINOMEscan (ScanMAX) service
The note with it: PIK3CA(E545A); 1 μM; read-out: % control.

For test [14], the target named is T13, panel of 468 kinases (Homo sapiens, UniProt Q8NFD2).
T13 construct: purchased KINOMEscan (ScanMAX) service
T13 sequence (Q8NFD2 1-765): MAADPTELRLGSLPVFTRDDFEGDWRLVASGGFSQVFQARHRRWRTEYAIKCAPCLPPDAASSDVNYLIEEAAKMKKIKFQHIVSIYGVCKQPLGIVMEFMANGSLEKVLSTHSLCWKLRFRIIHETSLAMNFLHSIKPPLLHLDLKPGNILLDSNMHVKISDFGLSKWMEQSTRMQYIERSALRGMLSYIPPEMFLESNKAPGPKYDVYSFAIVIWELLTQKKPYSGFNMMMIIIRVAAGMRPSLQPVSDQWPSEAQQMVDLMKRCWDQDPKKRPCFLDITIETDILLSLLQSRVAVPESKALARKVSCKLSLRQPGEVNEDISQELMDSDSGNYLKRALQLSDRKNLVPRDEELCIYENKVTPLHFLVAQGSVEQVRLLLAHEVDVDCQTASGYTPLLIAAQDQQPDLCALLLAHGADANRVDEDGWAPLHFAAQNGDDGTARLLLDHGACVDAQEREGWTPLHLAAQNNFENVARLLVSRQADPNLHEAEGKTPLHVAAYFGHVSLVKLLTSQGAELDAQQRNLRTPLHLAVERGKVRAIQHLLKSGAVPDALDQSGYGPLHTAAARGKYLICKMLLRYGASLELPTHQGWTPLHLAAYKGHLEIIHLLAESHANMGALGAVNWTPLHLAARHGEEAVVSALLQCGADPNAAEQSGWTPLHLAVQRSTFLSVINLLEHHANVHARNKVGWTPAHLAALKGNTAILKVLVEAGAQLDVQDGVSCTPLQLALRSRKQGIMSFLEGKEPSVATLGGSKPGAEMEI
The settings on record: ANKK1; 1 μM; read-out: % control.

The target of test [15] is T14, panel of 468 kinases (Homo sapiens, UniProt Q86Y07).
T14 construct: purchased KINOMEscan (ScanMAX) service
The settings on record: VRK2; 1 μM; read-out: % control.

T11 sequence (Q8NEB9 whole entry): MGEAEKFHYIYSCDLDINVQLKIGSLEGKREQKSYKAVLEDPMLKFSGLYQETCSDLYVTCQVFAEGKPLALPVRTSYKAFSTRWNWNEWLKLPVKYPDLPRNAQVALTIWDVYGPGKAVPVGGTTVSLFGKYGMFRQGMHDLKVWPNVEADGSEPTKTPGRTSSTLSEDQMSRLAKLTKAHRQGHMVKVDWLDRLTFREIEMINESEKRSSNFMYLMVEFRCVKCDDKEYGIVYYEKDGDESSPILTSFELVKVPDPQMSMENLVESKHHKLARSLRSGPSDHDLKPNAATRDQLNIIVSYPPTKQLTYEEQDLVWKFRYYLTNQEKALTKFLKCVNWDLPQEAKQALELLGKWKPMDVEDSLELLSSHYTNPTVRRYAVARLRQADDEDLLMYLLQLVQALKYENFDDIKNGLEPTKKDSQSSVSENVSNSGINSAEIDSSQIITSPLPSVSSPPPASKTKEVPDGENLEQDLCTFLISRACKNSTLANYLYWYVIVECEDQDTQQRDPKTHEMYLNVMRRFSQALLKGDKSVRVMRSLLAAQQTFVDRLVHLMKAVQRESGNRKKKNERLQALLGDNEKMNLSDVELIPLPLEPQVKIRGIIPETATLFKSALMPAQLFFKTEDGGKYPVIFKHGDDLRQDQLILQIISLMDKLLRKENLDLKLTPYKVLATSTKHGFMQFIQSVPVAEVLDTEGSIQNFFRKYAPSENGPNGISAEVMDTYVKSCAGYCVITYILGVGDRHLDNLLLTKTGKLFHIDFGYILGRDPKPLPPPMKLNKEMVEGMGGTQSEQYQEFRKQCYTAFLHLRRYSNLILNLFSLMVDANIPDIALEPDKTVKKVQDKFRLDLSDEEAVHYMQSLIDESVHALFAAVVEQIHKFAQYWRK
T8 sequence (Q15375 28-998): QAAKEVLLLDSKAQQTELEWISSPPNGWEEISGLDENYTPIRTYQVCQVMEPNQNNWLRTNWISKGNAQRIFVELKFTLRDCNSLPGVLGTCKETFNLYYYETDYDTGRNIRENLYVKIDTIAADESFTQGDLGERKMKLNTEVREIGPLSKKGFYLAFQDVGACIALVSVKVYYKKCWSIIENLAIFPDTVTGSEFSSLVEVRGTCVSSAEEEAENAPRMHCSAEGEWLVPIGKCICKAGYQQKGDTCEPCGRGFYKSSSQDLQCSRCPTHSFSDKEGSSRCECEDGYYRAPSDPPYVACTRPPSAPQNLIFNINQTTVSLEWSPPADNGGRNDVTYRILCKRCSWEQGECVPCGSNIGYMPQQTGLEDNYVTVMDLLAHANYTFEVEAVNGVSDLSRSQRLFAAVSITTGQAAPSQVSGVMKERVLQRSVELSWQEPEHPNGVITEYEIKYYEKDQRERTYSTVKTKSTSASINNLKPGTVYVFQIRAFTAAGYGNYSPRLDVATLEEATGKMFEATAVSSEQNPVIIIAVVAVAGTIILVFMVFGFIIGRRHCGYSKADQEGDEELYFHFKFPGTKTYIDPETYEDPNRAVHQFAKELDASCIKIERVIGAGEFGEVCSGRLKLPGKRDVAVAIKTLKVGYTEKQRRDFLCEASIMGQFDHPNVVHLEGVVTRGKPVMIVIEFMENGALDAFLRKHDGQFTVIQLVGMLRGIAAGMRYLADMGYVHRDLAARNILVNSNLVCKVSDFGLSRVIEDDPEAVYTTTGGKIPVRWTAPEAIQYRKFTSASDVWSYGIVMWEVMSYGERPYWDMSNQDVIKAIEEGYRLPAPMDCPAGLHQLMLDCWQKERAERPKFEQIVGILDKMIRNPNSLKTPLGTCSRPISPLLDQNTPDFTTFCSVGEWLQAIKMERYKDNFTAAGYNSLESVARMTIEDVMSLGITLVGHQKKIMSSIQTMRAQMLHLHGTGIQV
T1 sequence (P36507 whole entry): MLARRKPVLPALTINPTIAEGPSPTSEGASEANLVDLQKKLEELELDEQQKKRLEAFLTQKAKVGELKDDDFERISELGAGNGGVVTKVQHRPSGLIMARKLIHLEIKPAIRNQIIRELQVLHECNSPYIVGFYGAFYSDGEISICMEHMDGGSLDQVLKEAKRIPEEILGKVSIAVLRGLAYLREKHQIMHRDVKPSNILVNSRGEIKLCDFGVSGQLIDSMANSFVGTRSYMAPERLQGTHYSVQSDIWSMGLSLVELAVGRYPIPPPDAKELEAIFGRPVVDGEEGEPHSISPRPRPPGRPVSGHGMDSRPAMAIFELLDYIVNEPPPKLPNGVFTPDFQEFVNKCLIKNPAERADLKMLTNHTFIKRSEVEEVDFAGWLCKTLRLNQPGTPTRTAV
T10 sequence (P07947 whole entry): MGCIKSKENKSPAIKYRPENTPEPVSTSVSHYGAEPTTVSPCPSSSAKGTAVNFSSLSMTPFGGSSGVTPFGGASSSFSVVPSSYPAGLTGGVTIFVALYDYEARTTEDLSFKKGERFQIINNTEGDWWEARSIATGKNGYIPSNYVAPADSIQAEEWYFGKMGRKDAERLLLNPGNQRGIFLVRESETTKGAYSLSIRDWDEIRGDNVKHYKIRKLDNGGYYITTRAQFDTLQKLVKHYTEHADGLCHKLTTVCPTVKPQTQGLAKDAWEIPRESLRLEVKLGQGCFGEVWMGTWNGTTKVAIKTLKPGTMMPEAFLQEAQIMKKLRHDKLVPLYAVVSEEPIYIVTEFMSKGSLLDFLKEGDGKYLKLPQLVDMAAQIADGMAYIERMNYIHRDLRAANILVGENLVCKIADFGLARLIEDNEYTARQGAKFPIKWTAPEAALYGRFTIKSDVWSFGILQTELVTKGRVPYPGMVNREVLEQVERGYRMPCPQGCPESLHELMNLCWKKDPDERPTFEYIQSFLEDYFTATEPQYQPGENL
T6 sequence (P06213 28-1382): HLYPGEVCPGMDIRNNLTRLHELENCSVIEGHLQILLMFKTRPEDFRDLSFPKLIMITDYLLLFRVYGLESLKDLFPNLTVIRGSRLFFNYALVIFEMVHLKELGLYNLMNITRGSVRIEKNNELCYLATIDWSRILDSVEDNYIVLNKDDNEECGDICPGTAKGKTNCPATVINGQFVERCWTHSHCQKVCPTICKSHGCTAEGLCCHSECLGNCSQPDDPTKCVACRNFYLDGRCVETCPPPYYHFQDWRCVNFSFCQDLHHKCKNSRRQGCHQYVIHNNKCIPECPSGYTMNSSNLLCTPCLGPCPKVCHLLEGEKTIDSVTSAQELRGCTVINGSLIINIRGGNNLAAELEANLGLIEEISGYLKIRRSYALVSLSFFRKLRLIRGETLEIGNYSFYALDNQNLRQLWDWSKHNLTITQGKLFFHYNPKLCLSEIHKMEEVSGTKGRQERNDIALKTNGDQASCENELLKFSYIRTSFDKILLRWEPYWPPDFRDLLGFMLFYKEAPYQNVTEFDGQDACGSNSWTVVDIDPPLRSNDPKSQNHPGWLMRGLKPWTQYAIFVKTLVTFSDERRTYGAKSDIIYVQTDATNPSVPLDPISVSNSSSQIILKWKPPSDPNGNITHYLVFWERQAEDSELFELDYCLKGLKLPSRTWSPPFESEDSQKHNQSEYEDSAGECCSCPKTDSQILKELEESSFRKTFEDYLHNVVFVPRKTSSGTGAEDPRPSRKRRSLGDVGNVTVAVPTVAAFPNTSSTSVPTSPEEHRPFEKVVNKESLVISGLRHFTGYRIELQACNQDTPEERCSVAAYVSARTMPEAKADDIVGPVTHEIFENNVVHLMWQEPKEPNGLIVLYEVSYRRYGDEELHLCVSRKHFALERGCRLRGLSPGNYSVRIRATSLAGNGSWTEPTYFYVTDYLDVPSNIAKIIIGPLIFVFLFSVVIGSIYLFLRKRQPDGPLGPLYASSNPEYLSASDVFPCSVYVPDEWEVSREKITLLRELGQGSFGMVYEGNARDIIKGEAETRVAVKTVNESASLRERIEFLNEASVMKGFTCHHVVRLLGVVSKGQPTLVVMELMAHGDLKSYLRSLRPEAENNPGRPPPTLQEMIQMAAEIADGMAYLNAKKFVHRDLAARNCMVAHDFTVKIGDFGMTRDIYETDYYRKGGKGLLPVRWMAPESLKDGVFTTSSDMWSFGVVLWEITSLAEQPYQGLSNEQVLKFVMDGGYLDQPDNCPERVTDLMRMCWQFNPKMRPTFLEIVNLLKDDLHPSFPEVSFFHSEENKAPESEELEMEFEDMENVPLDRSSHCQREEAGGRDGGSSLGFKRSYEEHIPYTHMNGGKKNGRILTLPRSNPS
T3 sequence (P37023 22-503): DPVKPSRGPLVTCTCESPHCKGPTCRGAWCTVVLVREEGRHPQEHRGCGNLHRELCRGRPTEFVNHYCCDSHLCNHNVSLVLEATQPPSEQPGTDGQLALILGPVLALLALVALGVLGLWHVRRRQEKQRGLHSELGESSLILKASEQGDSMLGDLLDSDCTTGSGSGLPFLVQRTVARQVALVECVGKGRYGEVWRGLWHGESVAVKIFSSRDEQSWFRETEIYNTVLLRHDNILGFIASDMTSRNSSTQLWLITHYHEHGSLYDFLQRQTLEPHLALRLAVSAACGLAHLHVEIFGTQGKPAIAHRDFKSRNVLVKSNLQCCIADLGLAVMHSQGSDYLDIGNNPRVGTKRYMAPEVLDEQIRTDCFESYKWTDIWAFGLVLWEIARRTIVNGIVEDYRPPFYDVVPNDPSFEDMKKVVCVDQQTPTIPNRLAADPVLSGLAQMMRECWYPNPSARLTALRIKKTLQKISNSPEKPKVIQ

Regarding `CNc1nc(Nc2ccc(S(=O)(=O)N3CCC(N4CCOCC4)CC3)cc2OC)nc2[nH]cc(Cl)c12` [Compound 12, 5-chloro-N2-(2-methoxy-4-((4-morpholinopiperidin-1-yl)sulfonyl)phenyl)-N4-methyl-7H-pyrrolo[2,3-d]pyrimidine-2,4-diamine], the remaining binding at 1 µM at panel of 468 kinases [1] was determined as 78%; on panel of 468 kinases [2] it was 97%; at panel of 468 kinases [3] it was 100%; at panel of 468 kinases [4] (ABL1(F317L)-nonphosphorylated), 100%; on panel of 468 kinases [4] (ABL1(F317L)-phosphorylated) it was 70%; on panel of 468 kinases [5] it was 100%. The remaining binding at 1 µM came to 50% on panel of 468 kinases [6]; 100% on panel of 468 kinases [7]; 100% on panel of 468 kinases [9]; 100% at panel of 468 kinases [10]; 100% at panel of 468 kinases [11]; 62% on panel of 468 kinases [12]. In addition, the remaining binding at 1 µM on panel of 468 kinases [13] is 100%; at panel of 468 kinases [14], 73%; at panel of 468 kinases [15] it was 94%. Further, the “% control” value in the test with panel of 468 kinases [8] (EGFR(L747-E749del, A750P)) came out at 100%; in the test on panel of 468 kinases [8] (EGFR(L747-S752del, P753S)) it was 95%; in the test with panel of 468 kinases [8] (EGFR(L747-T751del,Sins)) it was 100%; in the test on panel of 468 kinases [8] (FLT3(ITD)), 100%; in the test on panel of 468 kinases [8] (FLT3(ITD,D835V)), 61%; in the test with panel of 468 kinases [8] (FLT3(ITD,F691L)), 66%.

Turning to `CNc1nc(Nc2ccc(P3(=O)CCN(C4CCOCC4)CC3)cc2OC)nc2[nH]cc(Cl)c12` [Compound 77, 4-(4-((5-chloro-4-(methylamino)-7H-pyrrolo[2,3-d]pyrimidin-2-yl)amino)-3-methoxyphenyl)-1-(tetrahydro-2H-pyran-4-yl)-1,4-azaphosphinane 4-oxide], the remaining binding at 1 µM at panel of 468 kinases [1] stood at 78%; on panel of 468 kinases [2], 100%; at panel of 468 kinases [3] it was 100%; on panel of 468 kinases [4] (ABL1(F317L)-nonphosphorylated) it was 100%; on panel of 468 kinases [4] (ABL1(F317L)-phosphorylated) it was 54%; on panel of 468 kinases [5], 100%. For the same compound, the remaining binding at 1 µM was 18% at panel of 468 kinases [6]; 100% at panel of 468 kinases [7]; 100% at panel of 468 kinases [9]; 100% at panel of 468 kinases [10]; 100% at panel of 468 kinases [11]; 71% at panel of 468 kinases [12]. Besides, the remaining binding at 1 µM on panel of 468 kinases [13] is 100%; on panel of 468 kinases [14], 65%; at panel of 468 kinases [15], 89%. In addition, the “% control” value in the test on panel of 468 kinases [8] (EGFR(L747-E749del, A750P)) is given as 92%; in the test with panel of 468 kinases [8] (EGFR(L747-S752del, P753S)) it was 99%; with panel of 468 kinases [8] (EGFR(L747-T751del,Sins)), 100%; in the test with panel of 468 kinases [8] (FLT3(ITD)), 81%; in the test with panel of 468 kinases [8] (FLT3(ITD,D835V)) it was 19%; in the test with panel of 468 kinases [8] (FLT3(ITD,F691L)), 40%.

Take `CNc1nc(Nc2ccc(C(=O)N3CCC(N4CCOCC4)CC3)c3c2OCO3)nc2[nH]cc(Cl)c12` [Compound 75, (7-((5-chloro-4-(methylamino)-7H-pyrrolo[2,3-d]pyrimidin-2-yl)amino)benzo[d][1,3]dioxol-4-yl)(4-morpholinopiperidin-1-yl)methanone]: the remaining binding at 1 µM at panel of 468 kinases [1] was found to be 76%; on panel of 468 kinases [2] it was 93%; on panel of 468 kinases [3] it was 100%; on panel of 468 kinases [4] (ABL1(F317L)-nonphosphorylated), 100%; on panel of 468 kinases [4] (ABL1(F317L)-phosphorylated), 47%; on panel of 468 kinases [5], 100%. Also, the remaining binding at 1 µM at panel of 468 kinases [6] came out at 24%; on panel of 468 kinases [7], 100%; on panel of 468 kinases [9], 100%; on panel of 468 kinases [10] it was 100%; on panel of 468 kinases [11], 100%; at panel of 468 kinases [12], 69%. Moreover, the remaining binding at 1 µM on panel of 468 kinases [13] was determined as 100%; on panel of 468 kinases [14] it was 41%; on panel of 468 kinases [15], 88%. The “% control” value with panel of 468 kinases [8] (EGFR(L747-E749del, A750P)) was 100%; in the test with panel of 468 kinases [8] (EGFR(L747-S752del, P753S)), 87%; in the test on panel of 468 kinases [8] (EGFR(L747-T751del,Sins)) it was 100%; with panel of 468 kinases [8] (FLT3(ITD)) it was 33%; with panel of 468 kinases [8] (FLT3(ITD,D835V)) it was 2%; in the test on panel of 468 kinases [8] (FLT3(ITD,F691L)), 2.8%.
